Experiments:
wild-type (Can-S) flies = experiment: Pavlovian olfactory learning: memory retention after massed or spaced training in flies fed cycloheximide; assay type: in vivo, Drosophila; conditions: for one-day memory after massed training: vs control flies; for one-day memory retention after spaced training: vs glucose-fed flies
Experimental: For experiments on one day retention after massed or spaced training, flies were fed 35 mM CXM and (w/v) 5% glucose dissolved in 3% ethanol. Groups of 100 flies were placed in feeding tubes (Falcon 2017) containing one 1.0×2.5 cm Whatmann 3MM filter paper strips that was soaked with a total of 126 μl of solution.
The feeding period was limited to 12-14 hrs prior to training, or to the 24-hr retention interval after training. Flies which were fed prior to training were transferred directly to the training apparatus after feeding, subjected to massed or spaced training, then transferred to test tubes containing filter paper strips soaked with 5% glucose during the 24-hr interval. Flies which were fed after training were trained, then transferred immediately to test tubes containing filter paper strips soaked with 5% glucose solution which was laced with 35 mM CXM. Flies remained in the test tubes for the duration of the 24-hr retention interval.
Flies were trained with an automated version of the learning procedure of Tully, T. and W. G. Quinn, J. Comp. Physiol., 157: 263-277 (1985). In brief, flies were trapped in a training chamber, the inside of which was covered with an electrifiable copper grid. Groups of about 100 flies were exposed sequentially to two odors [either octanol (OCT) or methylcyclohexanol (MCH)], which were carried through the training chamber in a current of air, for 60 seconds with 45 seconds rest intervals after each odor presenation. During exposure to the first odor, flies also were subjected to twelve 1.5-second pulses of 60 V DC with a 5-second interpulse interval. After training, flies were transferred to food vials for a particular retention interval. Conditioned odor-avoidance responses then were tested by transferring flies to the choice point of a T-maze, where they were exposed simultaneously to OCT and MCH carried in the distal ends of the T-maze arms and out the choice point on converging currents of air. Flies were allowed to distribute themselves in the T-maze arms for two minutes, after which they were trapped in their respective arms, anesthetized and counted. The “percent correct” then was calculated as the number of flies avoiding the shock-paired odor (they were in the opposite T-maze arm) divided by the total number of flies in both arms. (The number of flies left at the choice point, which usually was less than 5%, were not included in this calculation). Finally, a performance index (PI) was calculated by averaging the percent corrects of two reciprocal groups of flies—one where OCT and shock were paired, the other where MCH and shock were paired—and then by normalizing the average so that a PI=0 represented a 50:50 distribution in the T-maze and a PI=100 represented 100% avoidance of the shock-paired odor. For these studies, three different training protocols were used: 1. One-cycle training consisted of the training session just described. 2. Massed training consisted of 10 of these training cycles delivered one right after the other. 3. Spaced training consisted of 10 training cycles with a 15-min rest interval between each. One-cycle training was used to assay learning, while massed and spaced was used to assay consolidated memories.
A. One-day memory in wild-type flies fed CXM before or immediately after massed or spaced training (FIG. 8): PIs from these four drug treatments (−CXM before, −CXM after, +CXM before and +CXM after) and two training procedures (massed and spaced) were subjected to a TWO-WAY ANOVA with DRUG (F(3,56)=8.93; P<0.001) and TRAINing (F(1,56)=18.10, P<0.001) as main effects and DRUG×TRAIN (F(3,56)=4.68, P=0.006) as the interaction term. The six planned comparisons were judged significant if P≦0.01.
Different groups of wild-type (Can-S) flies were fed 5% glucose solution alone (hatched bars) or laced with 35 mM CXM (striped bars) either for 12-14 hr overnight before massed or spaced training or for the 24-hr retention interval immediately after training. […]

[1] = target: T1, DNOS (Drosophila nitric oxide synthase) (Drosophila melanogaster, UniProt Q27571, DUP33-33/S105L/S1197R/S20A/S287C); experiment: DNOS enzyme activity, conversion of 3H-L-arginine to 3H-L-citrulline in extracts of dNOS-transfected 293 cells; assay type: biochemical
T1 construct: contained dNOS cDNA (with an XbaI site engineered immediately upstream of the ATG codon) cloned into the XbaI and SmaI sites; made in house; host or cells: 293 human embryonic kidney cells, transient calcium-phosphate transfection; unpurified soluble protein extract
From the text: [In a parallel experiment, the specific activity of rat neuronal NOS expressed from the same vector in 293 cells was 3.0±0.02 pmol/mg/min, N=4]. DNOS activity was dependent on exogenous Ca^2+/calmodulin and on NADPH, two cofactors necessary for activity of constitutive mammalian NOSs (Iyengar, R., Proc. Natl. Acad. Sci. USA, 84: 6369-6373 (1987); Bredt, D. S., Proc. Natl. Acad. Sci. USA, 87: 682-685 (1990)). DNOS activity was reduced 90% by the Ca^2+ chelator EGTA (FIG. 17B, group C). Also, 500 μM N-(6-aminohexyl)-1-naphthalene-sulfonamide (W5), a calmodulin antagonist which inhibits activity of neuronal NOS (Bredt, D. S., Proc. Natl. Acad. Sci. USA, 87: 682-685 (1990)), diminished DNOS activity to 18% (0.0222±0.001 pmol/mg/min, N=2). In the absence of exogenous NADPH, DNOS (or nNOS) activity was reduced 20% (0.1061±0.011 pmol/mg/min, N=4 for DNOS; 2.7935±0.033 pmol/mg/min, N=2 for NNOS). DNOS activity also was blocked by inhibitors of mammalian NOSs (Rees, D. D., Br. J. Pharmacol., 101: 746-752 (1990)).
The expression construct for activity assays contained dNOS cDNA (with an XbaI site engineered immediately upstream of the ATG codon) cloned into the XbaI and SmaI sites of the pCGN expression vector (M. Tanaka and W. Herr, Cell, 60: 375 (1990)). 293 human kidney cells were transfected with 15 μg of the dNOS construct, or vector DNA, and precipitated with calcium phosphate as described in (M. J. Imperiale, L. T. Feldman and J. R. Nevins, Cell, 35: 127 (1983)). Cells were collected 2 days later and protein extracts were prepared as described in (J. Sambrook, E. F. Fritsch, T. Maniatis, Molecular Cloning: A Laboratory Manual (Cold Spring Harbor Laboratory, Cold Spring Harbor, N.Y., 1989)).
The enzymatic assay was done essentially as described previously (D. Bredt and S. Snyder, Proc. Natl. Acad. Sci. USA, 87: 682 (1990)). A […] containing 25 μl (50-100 μg) of soluble protein extract, 50 mM Hepes pH 7.4, […], 3 μM FMN, 10 μM tetrahydrobiopterin (ICN), 1 mM DTT, 0.8 mM CaCl2, 1 mM NADPH, 10 μg/ml calmodulin, 2 μl of [^3H]L-arginine (35.7 Ci/mmol, NEN) and 50 mM L-valine in was incubated for 60 minutes at 37° C. The reaction was stopped with 0.5 ml 20 mM Hepes pH 5.5, 2 mM EDTA, 2 mM EGTA, loaded on 0.5 ml Dowex AG 50WX-8 (Na^+ form) column and eluted with 3×0.5 ml of the stop buffer. Radioactivity present in the eluent was quantified in a scintillation counter.
Enzymatic activity was detected only in cells transfected with dNOS cDNA construct (groups B-D) and is presented as specific activity (pmol of citrulline/mg/min.). The DNOS activity also was measured in the presence of 1 mM EGTA without exogenous Ca^2+ or calmodulin (group C), or in the presence of […] (group D). N=4 reactions per group.

[2] = system: PKA-responsive transcription (CRE-directed reporter) in F9 cells; experiment: PKA-responsive transcription from the CRE-containing D(-71) CAT reporter in transiently transfected F9 cells; assay type: cell-based; conditions: cotransfection of dCREB2-a and PKA; CAT/βgal ratios standardized to PKA-transfected dishes
Experimental: Undifferentiated F9 cells were maintained and transfected using the calcium phosphate method as described in Darrow, A. L. et al., “Maintenance and Use of F9 Teratocarcinoma Cells”, In Meth. Enzymol., v. 190 (1990), except that chloroquine was added to […] immediately before transfection and precipitates were washed off ten hours after transfection, at which time the dishes received fresh chloroquine-free medium. Amounts of DNA in transfections were made equivalent by adding RSV-0 where required. Cells were harvested 30 hours after transfection. Extracts were made by three cycles of freeze/thawing, with brief vortexing between cycles. Particulate matter was cleared from extracts by ten minutes of centrifugation in the cold. β-galactosidase assays were performed as described in Miller, J. H., Experiments in Molecular Genetics, Cold Spring Harbor Laboratory, Cold Spring Harbor, N.Y., 1972. CAT assays were performed as described in Sheen, J. Y. and B. Seed, Gene, 67: 271-277 (1988) using aliquots of extract heat-treated at 65° C. for ten minutes and centrifuged for ten minutes to remove debris. Results reported are from three experiments run on different days with at least three dishes per condition within each experiment. Error bars represent standard error of the mean, with error propagation taken into account (Grossman, M. and H. W. Norton, J. Hered., 71: 295-297 (1980)).
F9 cells were transiently transfected with 10 μg of D(−71) CAT plasmid as a CRE-directed reporter. 5 μg of RSV-βgal reporter was included in each dish as a normalization control for transfection efficiency. Different groups received 8 μg of dCREB2-a expression vector and 4 μg of PKA expression vector, separately or in combination. Results are expressed as CAT/Pgal enzyme activity ratios, standardized to values obtained with PKA-transfected dishes. […]
Two different dCREB2 isoforms, dCREB2-a and dCREB2-b, have opposite roles in PKA-responsive transcription. […] CREB-dependent changes in gene expression were measured using a cotransfected construct that has a CRE-containing promoter fused to a reporter gene.

[3] = 35 mM CXM fed 12-14 hr before training
[4] = 35 mM CXM fed for the 24-hr retention interval after training
[5] = flies fed CXM immediately before or after training

T1 sequence (Q27571 other isoform, or with tags, fused parts or gaps S20A/DUP33-33/S105L/S287C/S1197R): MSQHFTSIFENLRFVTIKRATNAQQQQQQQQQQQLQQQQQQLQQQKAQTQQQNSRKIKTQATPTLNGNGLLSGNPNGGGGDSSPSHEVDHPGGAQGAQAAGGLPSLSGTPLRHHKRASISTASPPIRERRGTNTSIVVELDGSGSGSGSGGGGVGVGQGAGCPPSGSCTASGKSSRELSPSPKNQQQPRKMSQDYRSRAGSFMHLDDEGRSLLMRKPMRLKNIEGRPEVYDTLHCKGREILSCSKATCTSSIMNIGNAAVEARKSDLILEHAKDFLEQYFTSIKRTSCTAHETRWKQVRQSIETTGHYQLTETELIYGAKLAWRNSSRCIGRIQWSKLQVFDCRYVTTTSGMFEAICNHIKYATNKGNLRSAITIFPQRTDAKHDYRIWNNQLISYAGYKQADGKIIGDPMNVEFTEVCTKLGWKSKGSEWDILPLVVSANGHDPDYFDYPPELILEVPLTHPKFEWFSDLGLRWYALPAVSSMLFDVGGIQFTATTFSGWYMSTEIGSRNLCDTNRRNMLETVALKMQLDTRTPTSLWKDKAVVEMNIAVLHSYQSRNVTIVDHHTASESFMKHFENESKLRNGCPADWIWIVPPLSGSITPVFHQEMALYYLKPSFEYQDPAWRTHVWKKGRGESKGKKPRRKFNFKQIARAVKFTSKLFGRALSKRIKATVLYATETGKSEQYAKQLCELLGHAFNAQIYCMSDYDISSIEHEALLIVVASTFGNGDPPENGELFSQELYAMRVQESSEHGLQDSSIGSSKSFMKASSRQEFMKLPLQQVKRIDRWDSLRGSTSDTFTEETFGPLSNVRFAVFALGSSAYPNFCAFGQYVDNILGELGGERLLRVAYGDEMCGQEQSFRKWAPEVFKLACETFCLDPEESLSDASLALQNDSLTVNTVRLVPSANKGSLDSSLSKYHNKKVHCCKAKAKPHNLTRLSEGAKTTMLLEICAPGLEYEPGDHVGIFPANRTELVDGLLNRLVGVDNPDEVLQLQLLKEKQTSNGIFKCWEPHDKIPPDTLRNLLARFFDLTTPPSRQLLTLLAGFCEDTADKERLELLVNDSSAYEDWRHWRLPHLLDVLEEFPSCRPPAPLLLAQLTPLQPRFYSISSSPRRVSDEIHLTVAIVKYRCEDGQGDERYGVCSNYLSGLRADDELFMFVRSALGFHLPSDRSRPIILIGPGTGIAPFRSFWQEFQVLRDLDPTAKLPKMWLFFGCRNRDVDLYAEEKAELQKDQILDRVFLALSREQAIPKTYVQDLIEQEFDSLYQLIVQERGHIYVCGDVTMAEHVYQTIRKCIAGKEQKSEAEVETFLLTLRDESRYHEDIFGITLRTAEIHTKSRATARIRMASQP

C[C@@H]1C[C@@H]([C@H](O)CC2CC(=O)NC(=O)C2)C(=O)[C@@H](C)C1 [CXM, cycloheximide]
one-day memory after massed training (wild-type (Can-S) flies; [3]): no difference was detected | one-day memory retention after spaced training (wild-type (Can-S) flies; [3]): significantly lower than normal | one-day memory after massed training (wild-type (Can-S) flies; [4]): no difference was detected | one-day memory retention after spaced training (wild-type (Can-S) flies; [4]): significantly lower than normal | anesthesia-resistant memory (ARM) (wild-type (Can-S) flies; [5]): not affected | long-term memory (LTM) (wild-type (Can-S) flies; [5]): completely blocked

O=C(O)CN(CCOCCOCCN(CC(=O)O)CC(=O)O)CC(=O)O [EGTA]
DNOS activity reduced ([1]; 1 mM EGTA without exogenous Ca2+ or calmodulin (FIG. 17B, group C)): 90%

COC(=O)[C@@H](N)CCCNC(=N)N[N+](=O)[O-] [L-NAME, N^G-nitro-L-arginine methyl ester]
DNOS activity reduced ([1]; 100 mM L-NAME with exogenous Ca2+/calmodulin (FIG. 17B, group D)): 84%

CC(=O)O.CNC(=N)NCCC[C@H](N)C(=O)O [N^G-monomethyl-L-arginine acetate]
block of DNOS activity ([1]; 100 μM N^G-monomethyl-L-arginine acetate): complete block | DNOS specific activity ([1]; 100 μM N^G-monomethyl-L-arginine acetate, N=2): 0.0001 ± 0.0002 pmol/mg/min

NCCCCCCNS(=O)(=O)c1cccc2ccccc12 [W5, N-(6-aminohexyl)-1-naphthalene-sulfonamide]
DNOS specific activity ([1]; 500 μM W5, N=2): 0.0222 ± 0.001 pmol/mg/min | remaining activity at 500 µM ([1]; 500 μM W5, read-out: DNOS activity diminished to (remaining activity)): 18%

B1: dCREB2-a: Drosophila dCREB2 isoform, PKA-responsive transcriptional activator (SEQ ID NO.: 2), expressed from RSV-dCREB2-a (protein, listed as Drosophila sp.)
chain: MDNSIVEENGNSSAASGSNDVVDVVAQQAAAAVGGGGGGGGGGGGGGNPQQQQQNPQSTTAGGPTGATNNAQGGGVSSVLTTTANCNIQYPIQTLAQHGLQVSIWGPGAWCQLSSVRCYGSQPEVATKDVQSVIQANPSGVIQTAAGTQQQQQALAAATAMQKVVYVAKPPNSTVIHTTPGNAVQVRNKIPPTFPCKIKPEPNTQHPEDSDESLSDDDSQHHRSELTRRPSYNKIFTEISGPDMSGASLPMSDGVLNSQLVGTGAGGNAANSSLMQLDPTYYLSNRMSYNTNNSGIAEDQTRKREIRLQKNREAARECRRKKKEYIKCLENRVAVLENQNKALIEELKSLKELYCQTKND
activation of CRE reporter relative to PKA alone [2]: 5.4 fold

Source: patent US7572434B2, “Method for assessing the effect of a drug on long term memory formation” (Cold Spring Harbor Laboratory, priority 1994, dated 2009)
